Assay results from patent publication US20100055032A1, “METHODS FOR […] IMAGING USING NANOP[…] AGENTS” (NanoScan Imaging LLC, priority 2001, published 2010).

Experiment: CT evaluation of initial uptake and vascular distribution of PH-50 in normal rabbits
Format: in vivo, New Zealand white rabbits
Conditions: for Percent Uptake (%) Aorta / Percent Uptake (%) Brain / Percent Uptake (%) Cardiac / Percent Uptake (%) Liver / Percent Uptake (%) Portal Vein / Percent Uptake (%) Posterior Vena Cava: pre-treatment = 0; for Hounsfield Units (HU) Aorta / Hounsfield Units (HU) Brain / Hounsfield Units (HU) Cardiac / Hounsfield Units (HU) Liver / Hounsfield Units (HU) Portal Vein / Hounsfield Units (HU) Posterior Vena Cava: Rabbit No. 1151, infusion 3 mL/5 min IV (150 mg/kg)
Method: One (1) mL of PH-50 injected as a bolus intravenously (IV) via the jugular vein (n=2); and three (3) mL with a five (5) minute infusion via IV by way of the jugular vein (n=2); using the criteria set forth below in Table 1:
The animals were anesthetized via mask using Isoflorene® prior to each study and maintained under anesthesia during CT scan procedures. The animals were recovered and were mobile and allowed to drink up to the 8 hour study. Digital Subtraction Angiography (DSA) was performed during initial injection (one IV bolus and one infusion), then each rabbit was immediately moved to CT. The CT was performed after the initial injection (one IV bolus and one infusion).
All CT imaging was performed using a GE® Sytec Sri Helical Scanner (Milwaukee, Wis.) and the images were stored as DICOM3 on GE® optical and CD-Rom medium. The CT imaging parameters for these studies were 1 mm consecutive slices at 120 kvp at 1.5 sec, 200 mA. All scans were done with a standard phantom placed beneath the animal. All CT scans performed were of the entire animal (rostral nasal area to pelvis). Contrast attenuation was measured in Hounsfield units (HU) and expressed as percent (%) uptake, taking into account the calibration from the phantom. The iodine concentration and iodine uptake were estimated post-injection from vascular, lung and liver tissues.

[1] = Rabbit No. 1151 (infusion), 0 min
[2] = Rabbit No. 1151 (infusion), 5 min
[3] = Rabbit No. 1151 (infusion), 15 min
[4] = Rabbit No. 1151 (infusion), 60 min
[5] = Rabbit No. 1151 (infusion), 480 min
[6] = Rabbit No. 1156 (bolus), 15 min

CCOC(=O)CCCCCOC(=O)c1c(I)c(NC(C)=O)c(I)c(NC(C)=O)c1I [PH-50, 6-ethoxy-6-oxohexy-3,5-bis(acetylamino)-2,4,6-triiodobenzoate]
Percent Uptake (%) Aorta [1]: 44%
Percent Uptake (%) Brain [1]: 2%
Percent Uptake (%) Cardiac [1]: 33%
Percent Uptake (%) Liver [1]: 8%
Percent Uptake (%) Portal Vein [1]: 48%
Percent Uptake (%) Posterior Vena Cava [1]: 54%
Percent Uptake (%) Aorta [2]: 14%
Percent Uptake (%) Brain [2]: 17%
Percent Uptake (%) Cardiac [2]: 61%
Percent Uptake (%) Liver [2]: 32%
Percent Uptake (%) Portal Vein [2]: 91%
Percent Uptake (%) Posterior Vena Cava [2]: 44%
Percent Uptake (%) Aorta [3]: 37%
Percent Uptake (%) Brain [3]: 6%
Percent Uptake (%) Cardiac [3]: 4%
Percent Uptake (%) Liver [3]: 29%
Percent Uptake (%) Portal Vein [3]: 56%
Percent Uptake (%) Posterior Vena Cava [3]: 0%
Percent Uptake (%) Aorta [4]: 39%
Percent Uptake (%) Brain [4]: 14%
Percent Uptake (%) Cardiac [4]: 6%
Percent Uptake (%) Liver [4]: 21%
Percent Uptake (%) Portal Vein [4]: −5%
Percent Uptake (%) Posterior Vena Cava [4]: −43%
Percent Uptake (%) Aorta [5]: −62%
Percent Uptake (%) Brain [5]: 90.1%
Percent Uptake (%) Cardiac [5]: 0%
Percent Uptake (%) Liver [5]: −19%
Percent Uptake (%) Portal Vein [5]: 7%
Percent Uptake (%) Posterior Vena Cava [5]: −21%
Hounsfield Units (HU) Aorta (0 min post injection): 49.08 HU
Hounsfield Units (HU) Brain (0 min post injection): 44.89 HU
Hounsfield Units (HU) Cardiac (0 min post injection): 48.32 HU
Hounsfield Units (HU) Liver (0 min post injection): 93.08 HU
Hounsfield Units (HU) Portal Vein (0 min post injection): 54.03 HU
Hounsfield Units (HU) Posterior Vena Cava (0 min post injection): 73.00 HU
Hounsfield Units (HU) Aorta (5 min post injection): 38.85 HU
Hounsfield Units (HU) Brain (5 min post injection): 51.38 HU
Hounsfield Units (HU) Cardiac (5 min post injection): 58.67 HU
Hounsfield Units (HU) Liver (5 min post injection): 113.68 HU
Hounsfield Units (HU) Portal Vein (5 min post injection): 69.54 HU
Hounsfield Units (HU) Posterior Vena Cava (5 min post injection): 68.54 HU
Hounsfield Units (HU) Aorta (15 min post injection): 46.77 HU
Hounsfield Units (HU) Brain (15 min post injection): 46.75 HU
Hounsfield Units (HU) Cardiac (15 min post injection): 37.81 HU
Hounsfield Units (HU) Liver (15 min post injection): 111.22 HU
Hounsfield Units (HU) Portal Vein (15 min post injection): 56.85 HU
Hounsfield Units (HU) Posterior Vena Cava (15 min post injection): 47.46 HU
Hounsfield Units (HU) Aorta (60 min post injection): 47.62 HU
Hounsfield Units (HU) Brain (60 min post injection): 50.38 HU
Hounsfield Units (HU) Cardiac (60 min post injection): 38.49 HU
Hounsfield Units (HU) Liver (60 min post injection): 104.26 HU
Hounsfield Units (HU) Portal Vein (60 min post injection): 34.46 HU
Hounsfield Units (HU) Posterior Vena Cava (60 min post injection): 27.00 HU
Hounsfield Units (HU) Aorta (480 min post injection): 13.00 HU
Hounsfield Units (HU) Brain (480 min post injection): 34.37 HU
Hounsfield Units (HU) Cardiac (480 min post injection): 36.35 HU
Hounsfield Units (HU) Liver (480 min post injection): 69.57 HU
Hounsfield Units (HU) Portal Vein (480 min post injection): 38.81 HU
Hounsfield Units (HU) Posterior Vena Cava (480 min post injection): 37.72 HU
Percent Uptake (%) Aorta (Rabbit No. 1156 (bolus), 0 min): 317.0%
Percent Uptake (%) Brain (Rabbit No. 1156 (bolus), 0 min): −8%
Percent Uptake (%) Cardiac (Rabbit No. 1156 (bolus), 0 min): 38%
Percent Uptake (%) Liver (Rabbit No. 1156 (bolus), 0 min): 13%
Percent Uptake (%) Portal Vein (Rabbit No. 1156 (bolus), 0 min): 24%
Percent Uptake (%) Posterior Vena Cava (Rabbit No. 1156 (bolus), 0 min): 168.0%
Percent Uptake (%) Aorta (Rabbit No. 1156 (bolus), 5 min): 118%
Percent Uptake (%) Brain (Rabbit No. 1156 (bolus), 5 min): −15%
Percent Uptake (%) Cardiac (Rabbit No. 1156 (bolus), 5 min): 15%
Percent Uptake (%) Liver (Rabbit No. 1156 (bolus), 5 min): 26%
Percent Uptake (%) Portal Vein (Rabbit No. 1156 (bolus), 5 min): 38%
Percent Uptake (%) Posterior Vena Cava (Rabbit No. 1156 (bolus), 5 min): 253%
Percent Uptake (%) Aorta [6]: 162%
Percent Uptake (%) Brain [6]: −8%
Percent Uptake (%) Cardiac [6]: 12%
Percent Uptake (%) Liver [6]: 22%
Percent Uptake (%) Portal Vein [6]: 90%
Percent Uptake (%) Posterior Vena Cava [6]: 112%
Percent Uptake (%) Aorta (Rabbit No. 1156 (bolus), 60 min): 63%
